Test results: patent publication US11001587B2, “Substituted indazoles as phosphatidylinositol kinase inhibitors” (CUROVIR AB, priority 2017, dated 2021)

What was measured:
[1] = Metabolic stability in rat liver microsomes; format: in vitro ADME; conditions: 5 μM test item, 0.125 mg/mL microsomal protein
Description: (§1) Metabolic stability in human and rat liver microsomesMetabolic stability was studied using human (HLM) or rat (RLM) liver microsomes. The final composition of the assay included 5 μM of test item and reference item (Diclofenac or Imipramine) prepared from DMSO stock, so that the final concentration of DMSO was 0.1%, 0.125 mg/mL microsomal protein and cofactors (5.0 mM G-6-P, 0.06 U/mL G-6-PDH, 2.0 mM MgCl2, 1.0 mM NADP^+). Test and reference items were incubated with human or rat liver microsomes with or without cofactors. The reaction mixture (100 μL) was removed at specified time periods and the reaction was stopped by addition of stop solution. The samples were extracted in presence of internal standard and were analyzed using LC-MS/MS. The percent of the test/reference item remaining after a specified incubation period was calculated with respect to the peak area ratio at time 0 min.

Enterovirus 6 = experiment: In vitro CPE assay in mammalian cell culture, EV6; format: cell-based; conditions: viral cytopathic effect in mammalian cell culture, read-out: EV6 inhibition capacity (IC50)
in vitro = in vitro ADME; conditions: plasma, pH 7.4
Description: Plasma protein binding study was performed by using a Rapid Equilibrium Dialysis (RED) device containing dialysis membrane with a molecular weight cut-off of 8,000 Daltons. Each dialysis insert contains two chambers. The red chamber was for the plasma while the white chamber was for the buffer. The human and rat plasma (pH adjusted to 7.40) samples of test items and reference items (Warfarin and Propranolol) were prepared at a required test concentration of 5 μM using 5 mM DMSO stocks (final DMSO concentration was 0.1%). 300 μL of plasma sample was added into the sample chamber. 500 μL of buffer was added into the buffer chamber. After sealing the RED device with an adhesive film, incubation was done at 37° C. with shaking at 300 rpm for 4 h. Following incubation, an aliquot of 50 μL was removed from each well (plasma and buffer side) and diluted with equal volume of opposite matrix to nullify the matrix effect. The specimens were subjected to sample extraction in presence of internal standard by liquid-liquid extraction/protein precipitation method. After extraction, the samples were transferred into labeled auto sampler vials and submitted to LC-MS/MS analysis.

coxsackie B2 virus = experiment: In vitro CPE assay in mammalian cell culture, B2; format: cell-based; conditions: viral cytopathic effect in mammalian cell culture, read-out: B2 inhibition capacity (IC50)
Enterovirus 68 = experiment: In vitro CPE assay in mammalian cell culture, EV68; format: cell-based; conditions: Enterovirus D, viral cytopathic effect in mammalian cell culture, read-out: EV68 inhibition capacity (IC50)
polio virus Sabin 1 = experiment: organism not typed; format: cell-based; conditions: read-out: Polio 1 inhibition capacity (IC50)
coxsackie B3 virus = experiment: In vitro CPE assay in mammalian cell culture, B3; format: cell-based; conditions: Enterovirus B, viral cytopathic effect in mammalian cell culture, read-out: B3 inhibition capacity (IC50)
Enterovirus 30 = experiment: In vitro CPE assay in mammalian cell culture, EV30; format: cell-based; conditions: viral cytopathic effect in mammalian cell culture, read-out: EV30 inhibition capacity (IC50)
in vivo = experiment: in vivo; set-up: species or system Sprague Dawley rats; conditions: male, Sprague Dawley, rat, po, 50 mg/kg
Description: Overnight fasted animals were administered with the test compounds in recommended vehicle 0.4% (v/v) Tween 80+2% (v/v) Glycerol and 15% w/v HPBCD by oral route with a dose of 50 mg/kg body weight at dose volume of 10 mL/kg bw. Under mild isoflurane anesthesia, blood samples were collected into pre-labeled tubes containing anticoagulant (K2EDTA—2 mg/mL blood) during the next 24 hours post dose. Collected blood samples were centrifuged at 4000 rpm, 4° C. for 10 minutes and plasma was separated and stored at −80° C. until analysis.

coxsackie B5 virus = experiment: In vitro CPE assay in mammalian cell culture, B5; format: cell-based; conditions: viral cytopathic effect in mammalian cell culture, read-out: B5 inhibition capacity (IC50)
coxsackie B1 virus = experiment: In vitro CPE assay in mammalian cell culture, B1; format: cell-based; conditions: viral cytopathic effect in mammalian cell culture, read-out: B1 inhibition capacity (IC50)
[2] = Metabolic stability in human liver microsomes; format: in vitro ADME; conditions: for Remaining after 1 h, HLM: human liver microsomes, 5 μM test item, 0.125 mg/mL microsomal protein; for half-life at 5 μM: human, microsomes
Description: as §1

PI3Kβ = PI3Kβ (Homo sapiens, UniProt P42338); experiment: PI3 kinase inhibition HTRF assay; format: biochemical; conditions: * no inhibition at the highest tested concentration 1 μM
Description: (§2) Phosphatidyl inositol kinase inhibition assay Inhibition of PI4 kinases was studied using the ADP-Glo™ Kinase Assay which is a luminescent kinase assay that measures ADP formed from a kinase reaction, wherein ADP is converted into ATP, which is converted into light by Ultra-Glo™ Luciferase. The assay is performed in two steps; first, after the kinase reaction, an equal volume of ADP-Glo™ Reagent is added to terminate the kinase reaction and deplete the remaining ATP. In the second step, the Kinase Detection Reagent is added, which simultaneously converts ADP to ATP and allows the newly synthesized ATP to be measured using a coupled luciferase/luciferin reaction. The luminescent signal produced is proportional to the activity of the kinase. Inhibition of PI3 kinases was studied using the HTRF (homogeneous time-resolved fluorescence) assay, which is a universal method for identifying and characterizing the phosphotransferase activity induced by any ATP/ADP dependent target. The formation of ADP was detected by a specific monoclonal antibody labeled with Eu^3+ cryptate, and directly correlated with the amount of phosphorylated substrate.

PI3Kα = PI3Kα (Homo sapiens, UniProt P42336); experiment: PI3 kinase inhibition HTRF assay; format: biochemical; conditions: * no inhibition at the highest tested concentration 1 μM
Description: as §2

coxsackie B4 virus = experiment: In vitro CPE assay in mammalian cell culture, B4; format: cell-based; conditions: Enterovirus B, viral cytopathic effect in mammalian cell culture, read-out: B4 inhibition capacity (IC50)
Enterovirus 71 = experiment: In vitro CPE assay in mammalian cell culture, EV71; format: cell-based; conditions: Enterovirus A, viral cytopathic effect in mammalian cell culture, read-out: EV71 inhibition capacity (IC50)
PI4KIIIα = PI4KIIIα (Homo sapiens, UniProt P42356); experiment: Phosphatidyl inositol kinase inhibition assay (ADP-Glo Kinase Assay); format: biochemical; conditions: * no inhibition at the highest tested concentration 1 μM
Description: as §2

PI4KIIIβ = PI4KIIIβ (Homo sapiens, UniProt Q9UBF8); experiment: as above; format: biochemical
Description: as §2

Chain of PI3Kα (P42336 whole entry, species assumed): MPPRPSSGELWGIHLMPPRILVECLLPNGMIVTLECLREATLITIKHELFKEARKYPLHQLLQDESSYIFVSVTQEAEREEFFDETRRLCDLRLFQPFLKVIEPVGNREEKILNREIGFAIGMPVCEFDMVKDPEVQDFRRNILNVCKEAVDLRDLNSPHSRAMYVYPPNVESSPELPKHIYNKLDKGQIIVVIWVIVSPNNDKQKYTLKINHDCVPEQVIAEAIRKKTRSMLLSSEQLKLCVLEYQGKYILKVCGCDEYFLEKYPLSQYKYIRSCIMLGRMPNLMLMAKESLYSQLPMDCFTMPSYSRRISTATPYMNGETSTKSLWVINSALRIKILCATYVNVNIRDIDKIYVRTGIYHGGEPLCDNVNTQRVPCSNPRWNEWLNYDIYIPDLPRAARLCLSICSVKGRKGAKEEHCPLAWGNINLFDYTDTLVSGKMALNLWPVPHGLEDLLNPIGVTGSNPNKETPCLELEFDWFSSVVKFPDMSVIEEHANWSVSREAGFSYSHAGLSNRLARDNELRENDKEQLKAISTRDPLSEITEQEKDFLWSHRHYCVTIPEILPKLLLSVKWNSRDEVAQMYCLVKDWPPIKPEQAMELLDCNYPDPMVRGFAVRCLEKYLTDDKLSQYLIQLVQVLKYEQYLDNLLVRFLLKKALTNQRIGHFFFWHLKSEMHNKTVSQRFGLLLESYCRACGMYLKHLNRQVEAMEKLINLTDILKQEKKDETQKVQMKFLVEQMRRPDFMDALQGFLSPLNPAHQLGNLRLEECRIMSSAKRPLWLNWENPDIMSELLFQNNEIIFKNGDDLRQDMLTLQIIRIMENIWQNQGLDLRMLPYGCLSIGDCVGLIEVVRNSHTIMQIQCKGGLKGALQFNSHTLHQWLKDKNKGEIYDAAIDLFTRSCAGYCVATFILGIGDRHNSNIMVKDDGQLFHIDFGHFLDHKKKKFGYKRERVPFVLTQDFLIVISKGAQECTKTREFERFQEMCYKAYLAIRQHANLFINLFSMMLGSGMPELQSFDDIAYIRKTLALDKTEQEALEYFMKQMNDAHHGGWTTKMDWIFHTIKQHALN
Chain of PI3Kα (P27986 whole entry partner, species assumed): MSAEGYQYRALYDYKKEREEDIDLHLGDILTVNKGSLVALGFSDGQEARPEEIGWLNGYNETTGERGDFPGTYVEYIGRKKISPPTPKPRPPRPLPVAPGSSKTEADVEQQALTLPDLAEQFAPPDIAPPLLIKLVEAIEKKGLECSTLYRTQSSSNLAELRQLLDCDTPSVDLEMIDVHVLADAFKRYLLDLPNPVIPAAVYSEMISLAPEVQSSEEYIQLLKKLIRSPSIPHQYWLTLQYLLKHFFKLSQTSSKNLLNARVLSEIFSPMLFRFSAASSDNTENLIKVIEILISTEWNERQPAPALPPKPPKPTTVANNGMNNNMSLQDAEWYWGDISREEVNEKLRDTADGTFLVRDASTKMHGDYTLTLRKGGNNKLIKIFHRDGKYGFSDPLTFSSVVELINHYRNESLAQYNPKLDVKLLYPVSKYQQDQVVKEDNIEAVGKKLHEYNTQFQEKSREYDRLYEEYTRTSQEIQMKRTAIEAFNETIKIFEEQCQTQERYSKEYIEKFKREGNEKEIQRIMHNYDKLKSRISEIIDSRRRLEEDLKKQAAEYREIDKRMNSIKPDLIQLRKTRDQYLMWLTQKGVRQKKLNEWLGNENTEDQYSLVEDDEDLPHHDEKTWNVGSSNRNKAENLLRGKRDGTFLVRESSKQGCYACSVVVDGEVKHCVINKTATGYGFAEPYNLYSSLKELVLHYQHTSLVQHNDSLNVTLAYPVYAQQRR
Chain of PI3Kβ (P42338 whole entry, species assumed): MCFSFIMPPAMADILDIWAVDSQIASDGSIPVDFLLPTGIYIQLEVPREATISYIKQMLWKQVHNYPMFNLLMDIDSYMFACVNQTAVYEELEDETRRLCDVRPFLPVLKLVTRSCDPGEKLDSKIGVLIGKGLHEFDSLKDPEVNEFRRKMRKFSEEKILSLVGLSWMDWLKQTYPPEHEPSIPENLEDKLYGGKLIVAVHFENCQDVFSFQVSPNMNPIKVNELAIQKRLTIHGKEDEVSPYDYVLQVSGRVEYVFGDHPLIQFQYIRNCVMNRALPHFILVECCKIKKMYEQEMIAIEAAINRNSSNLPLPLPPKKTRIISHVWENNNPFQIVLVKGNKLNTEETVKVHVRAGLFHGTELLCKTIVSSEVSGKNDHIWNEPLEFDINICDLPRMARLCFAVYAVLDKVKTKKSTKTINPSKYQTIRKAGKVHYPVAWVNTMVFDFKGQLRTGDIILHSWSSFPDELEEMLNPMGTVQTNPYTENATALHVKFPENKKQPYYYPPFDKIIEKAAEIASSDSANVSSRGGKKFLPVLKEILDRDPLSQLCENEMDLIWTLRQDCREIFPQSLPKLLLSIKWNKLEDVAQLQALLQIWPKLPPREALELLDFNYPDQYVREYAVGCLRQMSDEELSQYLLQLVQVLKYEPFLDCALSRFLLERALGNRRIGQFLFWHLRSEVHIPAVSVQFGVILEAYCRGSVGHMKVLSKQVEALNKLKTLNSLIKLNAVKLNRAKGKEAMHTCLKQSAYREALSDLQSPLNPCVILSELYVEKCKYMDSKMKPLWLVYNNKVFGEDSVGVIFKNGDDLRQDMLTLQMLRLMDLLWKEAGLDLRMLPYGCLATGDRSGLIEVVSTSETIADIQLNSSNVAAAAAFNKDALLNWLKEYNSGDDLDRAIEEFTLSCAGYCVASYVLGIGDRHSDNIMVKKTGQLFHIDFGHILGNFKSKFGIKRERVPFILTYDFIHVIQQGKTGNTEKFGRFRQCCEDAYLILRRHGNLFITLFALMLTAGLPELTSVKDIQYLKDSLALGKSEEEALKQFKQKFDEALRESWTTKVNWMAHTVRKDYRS
Chain of PI3Kβ (P27986 whole entry partner, species assumed): as the sequence (P27986 whole entry partner, species assumed) above
Chain of PI4KIIIα (P42356 whole entry): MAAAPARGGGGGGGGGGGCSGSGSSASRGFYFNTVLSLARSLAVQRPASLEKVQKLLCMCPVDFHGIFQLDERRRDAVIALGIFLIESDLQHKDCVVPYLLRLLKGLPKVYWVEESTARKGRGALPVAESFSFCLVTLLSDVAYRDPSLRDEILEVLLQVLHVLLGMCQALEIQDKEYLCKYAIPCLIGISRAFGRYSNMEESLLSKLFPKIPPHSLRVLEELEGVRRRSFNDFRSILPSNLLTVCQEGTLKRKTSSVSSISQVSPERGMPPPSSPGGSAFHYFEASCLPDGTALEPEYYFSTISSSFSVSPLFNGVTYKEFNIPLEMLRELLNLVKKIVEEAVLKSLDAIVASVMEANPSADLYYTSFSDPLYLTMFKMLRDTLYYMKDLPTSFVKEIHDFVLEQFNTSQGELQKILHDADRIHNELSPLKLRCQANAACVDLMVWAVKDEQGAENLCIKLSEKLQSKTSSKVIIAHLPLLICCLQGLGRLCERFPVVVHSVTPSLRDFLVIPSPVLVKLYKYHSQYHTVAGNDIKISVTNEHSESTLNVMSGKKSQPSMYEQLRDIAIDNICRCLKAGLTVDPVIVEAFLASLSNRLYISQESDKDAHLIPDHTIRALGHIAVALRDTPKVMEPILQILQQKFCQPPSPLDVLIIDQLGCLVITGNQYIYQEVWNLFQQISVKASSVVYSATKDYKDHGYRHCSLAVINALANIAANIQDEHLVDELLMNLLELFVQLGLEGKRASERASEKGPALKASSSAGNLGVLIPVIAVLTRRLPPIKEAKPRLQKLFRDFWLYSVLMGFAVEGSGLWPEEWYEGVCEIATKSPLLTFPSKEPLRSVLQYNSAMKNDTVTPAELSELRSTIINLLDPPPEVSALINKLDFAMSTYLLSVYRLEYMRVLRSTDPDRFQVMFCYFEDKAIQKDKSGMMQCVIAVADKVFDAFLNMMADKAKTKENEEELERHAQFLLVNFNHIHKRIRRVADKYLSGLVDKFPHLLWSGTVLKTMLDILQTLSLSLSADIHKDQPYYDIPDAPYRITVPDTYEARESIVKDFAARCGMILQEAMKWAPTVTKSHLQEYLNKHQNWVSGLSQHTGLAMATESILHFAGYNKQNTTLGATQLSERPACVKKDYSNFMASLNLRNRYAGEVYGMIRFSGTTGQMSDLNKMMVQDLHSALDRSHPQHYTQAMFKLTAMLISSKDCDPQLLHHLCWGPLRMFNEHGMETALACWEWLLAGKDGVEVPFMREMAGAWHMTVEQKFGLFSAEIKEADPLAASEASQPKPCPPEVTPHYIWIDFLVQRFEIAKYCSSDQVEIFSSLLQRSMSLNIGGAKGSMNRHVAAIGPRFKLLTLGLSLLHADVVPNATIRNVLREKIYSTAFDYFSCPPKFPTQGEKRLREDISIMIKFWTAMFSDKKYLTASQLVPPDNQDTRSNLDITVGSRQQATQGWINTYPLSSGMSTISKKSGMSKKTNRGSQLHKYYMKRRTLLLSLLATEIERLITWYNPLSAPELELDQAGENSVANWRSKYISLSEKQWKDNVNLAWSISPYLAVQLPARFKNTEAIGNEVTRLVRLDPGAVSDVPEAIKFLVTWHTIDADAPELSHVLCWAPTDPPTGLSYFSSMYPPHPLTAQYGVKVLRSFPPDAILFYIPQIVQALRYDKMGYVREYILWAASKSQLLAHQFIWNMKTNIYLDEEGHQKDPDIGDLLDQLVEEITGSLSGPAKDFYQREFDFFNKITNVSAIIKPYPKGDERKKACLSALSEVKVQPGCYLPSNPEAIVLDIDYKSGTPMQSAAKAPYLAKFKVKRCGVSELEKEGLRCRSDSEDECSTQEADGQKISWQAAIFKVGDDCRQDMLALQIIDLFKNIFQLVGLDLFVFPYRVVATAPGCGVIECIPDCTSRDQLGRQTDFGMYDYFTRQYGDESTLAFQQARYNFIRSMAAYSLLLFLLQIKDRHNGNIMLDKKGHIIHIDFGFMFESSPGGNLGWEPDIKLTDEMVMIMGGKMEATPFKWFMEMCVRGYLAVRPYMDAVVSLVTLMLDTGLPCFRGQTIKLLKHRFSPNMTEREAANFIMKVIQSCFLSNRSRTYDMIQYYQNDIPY

| Compound | Remaining after 1 h, RLM [1] [%] | IC50 (Enterovirus 6) [nM] | fraction unbound at 4 h, 5 μM (in vitro; human) | fraction unbound at 4 h, 5 μM (in vitro; rat) | IC50 (coxsackie B2 virus) [nM] | IC50 (Enterovirus 68) [nM] | IC50 (polio virus Sabin 1) [nM] | IC50 (coxsackie B3 virus) [nM] | IC50 (Enterovirus 30) [nM] | AUC(0-inf) (in vivo) [µg·h/mL] | AUC(0-t) (in vivo) [µg·h/mL] | AUCextrap (in vivo) [%] | Cmax (in vivo) [ng/mL] | MRT last (in vivo) [h] | Tmax (in vivo) [h] | half-life (in vivo) [h] | IC50 (coxsackie B5 virus) [nM] | IC50 (coxsackie B1 virus) [nM] | Remaining after 1 h, HLM [2] [%] | half-life at 5 μM [2] [h] | further results |
| --- | --- | --- | --- | --- | --- | --- | --- | --- | --- | --- | --- | --- | --- | --- | --- | --- | --- | --- | --- | --- | --- |
| Cc1cc(NCc2ccncc2)n2nc(C)c(-c3ccc4c(c3)c(C)nn4C)c2n1 [Example 8, 3-(1,3-dimethyl-1H-indazol-5-yl)-2,5-dimethyl-N-(pyridin-4-ylmethyl)pyrazolo[1,5-a]pyrimidin-7-amine] | 90 | < 100 | 0.027 | 0.024 | < 0.1 | < 0.1 | < 0.1 | < 0.1 | < 1 | 197 ± 27.1 | 185 ± 13.3 | 5.7 ± 6.1 | 12900 ± 700 | 6.8 ± 0.8 | 1.7 ± 0.6 | 5.4 ± 2.5 | < 0.1 | < 0.1 | 86 | > 2 | IC50 (PI3Kβ): 1500 nM; IC50 (PI3Kα): > 1000 nM; IC50 (coxsackie B4 virus): < 10 nM; IC50 (Enterovirus 71): < 0.1 nM; IC50 (PI4KIIIα): 1300 nM; IC50 (PI4KIIIβ): 0.9 nM |
| Cc1nc(NCc2ccncc2)n2nc(C)c(-c3ccc4c(c3)c(C)nn4C)c2n1 [Example 20, 8-(1,3-dimethyl-1H-indazol-5-yl)-2,7-dimethyl-N-(pyridin-4-ylmethyl)pyrazolo[1,5-a][1,3,5]triazin-4-amine] | 96 | < 1000 | 0.906 | 0.031 | < 1 | < 10 | < 1 | < 1 | < 10 | 115 ± 9.4 | 110 ± 8.3 | 5.1 ± 4.9 | 8000 ± 1500 | 6.8 ± 0.9 | 2 | 5 ± 2.3 | < 1 | < 1 | 78 | > 2 | IC50 (PI3Kβ): > 1000 nM; IC50 (PI3Kα): > 1000 nM; IC50 (coxsackie B4 virus): < 10 nM; IC50 (Enterovirus 71): < 10 nM; IC50 (PI4KIIIα): > 1000 nM; IC50 (PI4KIIIβ): 1.2 nM |
